Test results as given in patent US8039585B2, “Therapeutic administration of the scrambled anti-angiogenic peptide C16Y” (The United States of America as represented by the …, priority 2004, dated 2011).
Ends that are not written are not given here.

Legend:
HUVECs = assay: Endothelial cell tube-forming assay on Matrigel; type: cell-based, human; set-up: key to Disruption of tube formation / Activity (tube formation, truncated C16Y peptides): +: tubes slightly affected; ++: tubes moderately affected; +++: tubes disrupted; ++++: tubes completely disrupted; −: tubes resemble control; conditions: for Activity (tube formation, truncated C16Y peptides): truncated versions of C16Y, concentration not given; for Disruption of tube formation: 16 hours
Description: FIG. 3: Disruption of endothelial cell tube formation by C16Y peptide. 48-well plates were coated with 200 μl of Matrigel per well. Each well was treated with RPMI containing 24,000 human umbilical vein endothelial cells (HUVECS) and 100 mg/L endothelial cell growth factor in the presence of 10-75 μg/ml of C16 or scrambled C16 peptide for 16 hours. Control wells contained medium only. Cells were fixed and stained, and tube formation was scored by a blinded observer.
Tube-forming assays were performed as described previously (Ponce 2001). 48-well plates were coated with 200 μl/well of Matrigel (Gho 2001; Kubota 1988), a basement membrane matrix. HUVECs (24,000 cells/well) were plated in RPMI 1640 containing 10% bovine calf serum, defined and supplemented (HyClone Laboratories, Inc., Logan, Utah), along with 100 mg/liter of endothelial cell growth factor (Collaborative Biomedical). C16 or scrambled C16 peptides were added at concentrations ranging from 10-75 μg/ml. Control wells contained medium only. After 16 hours, cells were fixed and stained with Diff-Quick fixative (methanol) and solution II (6.25% (w/v) each of azure A and methylene blue) (Dade A G, Dudingen, Switzerland), and tube formation was scored by a blinded observer. Each peptide was tested at least in triplicate, and the assays were repeated a minimum of three times.
Tube formation assays were repeated using truncated versions of the C16Y peptide to determine the minimal active sequence of the peptide. The carboxyl end of C16Y was not necessary for activity, whereas the amino terminal aspartic acid was required. The minimal active sequence for the C16Y peptide is shown in SEQ ID NO: 2. Each of the peptides containing at least this 8 amino acid sequence (SEQ ID NOs: 1-5) inhibited tube formation.

[1] = system: human umbilical vein endothelial cells (HUVECs); assay: Endothelial cell adhesion to peptide-coated plates; type: cell-based; conditions: 0-5 μg coated, 1.5 hours
Description: FIG. 1: Endothelial cell adhesion by C16 and scrambled C16 peptides. 96-well plates were coated with either laminin-1 (0.5 μg), C16 peptide (0-5 μg), or scrambled C16 peptide (0-5 μg). Each well was rinsed with PBS, blocked with BSA, rinsed again with PBS, and then treated with 0.1 ml of RPMI containing 35,000 human umbilical vein endothelial cells (HUVECs) for 1.5 hours at 37° C. Unbound cells were decanted, and attached cells were stained with crystal violet and quantified by measuring their absorbance at 600 nm. Cells adhered to C16, C16S, and C16Y peptides. More cells adhered to C16Y than to any other peptide at all concentrations tested. Bars represent ±SD.
Endothelial cell adhesion assays were performed on 96-well plates coated overnight with either laminin-1 (0.5 μg) or synthetic laminin peptides C16, C16S, C16J, C16L, or C16Y (0-5 μg) as described previously (Malinda 1999). Wells were rinsed with PBS, blocked with 2 mg/ml of BSA, and rinsed again with PBS. Cell adhesion was performed using 0.1 ml of RPMI 1640 containing 35,000 HUVECs. After a 1.5-hour incubation period at 37° C., unbound cells were decanted and attached cells were fixed and stained with 20% methanol/0.2% crystal violet. Dishes were extensively rinsed, and bound dye was solubilized in 2% SDS and quantitated at 600 nm. Assays were done in triplicate at least three times.

[2] = system: endothelial cell attachment to laminin-1; assay: Competition assay: block of endothelial cell adhesion to laminin-1; type: cell-based, human
Description: FIG. 2: Ability of C16 and scrambled C16 peptides to block laminin-1 endothelial cell adhesion. 96-well plates were coated with laminin-1 (0.5 μg) in the presence of competing C16 or scrambled C16 peptides (0-100 μg/ml). Each wells was treated with 0.1 ml of RPMI containing 35,000 human umbilical vein endothelial cells (HUVECs) for 1.5 hours at 37° C. Unbound cells were decanted, and attached cells were stained with crystal violet and quantified by measuring their absorbance at 600 nm. […] Bars represent ±SD.
Competition experiments were done using 96-well plates coated with laminin-1 (0.5 μg) in the presence of 0-100 μg/ml of competing C16, C16S, C16J, C16L, or C16Y synthetic laminin peptide as specified. Control wells were coated with BSA only. Wells were contacted with 0.1 ml of RPMI 1640 containing 35,000 HUVECs. After a 1.5-hour incubation at 37° C., unbound cells were decanted and attached cells were fixed and stained with 20% methanol/0.2% crystal violet. Dishes were extensively rinsed, and bound dye was solubilized in 2% SDS and quantitated at 600 nm. Assays were done in triplicate at least three times.

[3] = system: bFGF-induced angiogenesis; assay: CAM assay, bFGF-induced angiogenesis; type: in vivo, chick; conditions: 50 ng bFGF + 0.05 μg peptide
Description: FIG. 5: Inhibition of bFGF-induced angiogenesis by C16Y. 50 ng of angiogenic stimulator (bFGF) and varying concentrations of either C16S or C16Y peptides were applied to 10-day old embryonated eggs in 5 μl of water, and CAMs were analyzed for the presence or absence of angiogenesis.
50 ng of angiogenic stimulator (bFGF) and varying concentrations of either C16S or C16Y peptides were applied to 10-day old embryonated eggs in 5 μl of water, and CAMs were analyzed after 3 days for the presence or absence of angiogenesis.

[4] = system: C16-induced angiogenesis in the chick CAM; assay: CAM assay, C16-induced angiogenesis; type: in vivo
Description: FIG. 4: Inhibition of C16-induced angiogenesis by C16Y. 0.5 μg of angiogenic stimulator (C16 peptide) and varying concentrations of either C16S or C16Y peptides were applied to 10-day-old embryonated eggs in 5 μl of water. After 3 days, microphotographs were taken of the eggs to determine angiogenesis levels. Negative control eggs were treated with water only (panel a), while positive control eggs were treated with bFGF only (not shown). As expected, C16 peptide administered alone stimulated angiogenesis (panel d). […] When the amount of inhibitor peptide was lowered to 0.05 μg, C16Y peptide continued to inhibit angiogenesis (panel f), while C16S peptide had no effect (panel c).
The CAM assay was performed using 10-day-old embryonated eggs (CBT, Charlestown, Md.) as described previously (Gho 1999). On embryonal day 3, approximately 4 ml of ovalbumin was removed from each egg. After opening windows on embryonal day 10, the angiogenic stimulus (C16) and test competitor peptides in 5 μl of distilled water were applied to the CAM after drying on 13-mm diameter quartered plastic coverslips (Thermanox; Nalge, NUNC International, Naperville, Ill.). Three days later, the eggs were scored for a positive response and photographed. The positive control was bFGF, and the negative control was the vehicle water. Experiments were repeated twice using a minimum of 11 eggs for each data point.

[5] = Toxicity statement (no method described)
[6] = system: tumor growth and lung colonization; conditions: Fridman 1990; cited from earlier work

**Q.** For AVYIKYR [truncated version of C16Y], which “Activity (tube formation, truncated C16Y peptides)” value (HUVECs) is on record?
**A.** −

**Q.** What does the source list for “C16J: scrambled peptide of C16 (IKDYLTFARVKF-NH2) [Peptide C16J]”?
**A.** Endothelial cell adhesion to coated peptide [1]: only weakly bound; Inhibitory activity on laminin-1 cell adhesion ([2]; 0-100 μg/ml competing peptide): little activity at all of the doses tested; Effect on endothelial tube formation (HUVECs): no activity at lower doses and only slight tube disruption at higher concentrations; Disruption of tube formation (HUVECs; peptide concentration 10 μg/ml): −; Disruption of tube formation (HUVECs; peptide concentration 25 μg/ml): −; Disruption of tube formation (HUVECs; peptide concentration 50 μg/ml): −; Disruption of tube formation (HUVECs; peptide concentration 75 μg/ml): −

**Q.** For “C16L: scrambled peptide of C16 (LTFRAKVYFIKD-NH2) [Peptide C16L]”, which “Endothelial cell adhesion to coated peptide” value [1] is on record?
**A.** did not attach

**Q.** What about the “Dose showing some inhibition of attachment to laminin-1” value [2] of the same substance?
**A.** > 75 µg/mL

**Q.** What about the “Effect on endothelial tube formation” value (HUVECs) of the same substance?
**A.** no activity at lower doses and only slight tube disruption at higher concentrations

**Q.** And the “Disruption of tube formation” value (HUVECs; peptide concentration 10 μg/ml)?
**A.** −

**Q.** What about the “Disruption of tube formation” value (HUVECs; peptide concentration 25 μg/ml) of the same substance?
**A.** −

**Q.** And the “Disruption of tube formation” value (HUVECs; peptide concentration 50 μg/ml)?
**A.** +

**Q.** What about the “Disruption of tube formation” value (HUVECs; peptide concentration 75 μg/ml) of the same substance?
**A.** ++

**Q.** With “C16S: scrambled peptide of C16, created as a negative control, with antagonist activity (KAFDITYVRLKF; Scrambled version of C16 peptide) [Peptide C16S, reference compound]” as the substance, how does the “Inhibition of angiogenesis” value [3] read?
**A.** no ability to inhibit angiogenesis

**Q.** And the “Inhibitory effect on angiogenesis” value ([4]; 0.5 μg C16 + 0.05 μg inhibitor peptide)?
**A.** no longer generated an inhibitory effect

**Q.** And the Reduction in angiogenesis ([4]; 0.5 μg C16 + 0.1 μg inhibitor peptide)?
**A.** 52%

**Q.** And the Reduction in angiogenesis ([4]; 0.5 μg C16 + 0.2 μg inhibitor peptide)?
**A.** 63%

**Q.** What about the “Angiogenesis with peptide administered alone” value ([4]; peptide alone (C16: 0.5 μg)) of the same substance?
**A.** neither C16Y (FIG. 4, panel e) nor C16S (data not shown) administered alone stimulated angiogenesis

**Q.** And the “Dose at which tube formation is disrupted (lowest active)” value (HUVECs; 10-75 μg/ml tested)?
**A.** 50 µg/mL

**Q.** What about the “Disruption of tube formation” value (HUVECs; peptide concentration 10 μg/ml) of the same substance?
**A.** −

**Q.** What about the “Disruption of tube formation” value (HUVECs; peptide concentration 25 μg/ml) of the same substance?
**A.** −

**Q.** And the “Disruption of tube formation” value (HUVECs; peptide concentration 50 μg/ml)?
**A.** +++

**Q.** And the “Disruption of tube formation” value (HUVECs; peptide concentration 75 μg/ml)?
**A.** +++

**Q.** For DFKLF, which “Activity (tube formation, truncated C16Y peptides)” value (HUVECs) is on record?
**A.** −

**Q.** With DFKLFA as the substance, how does the “Activity (tube formation, truncated C16Y peptides)” value (HUVECs) read?
**A.** −

**Q.** With DFKLFAV [truncated version of C16Y] as the substance, how does the “Activity (tube formation, truncated C16Y peptides)” value (HUVECs) read?
**A.** −

**Q.** Which “Activity (tube formation, truncated C16Y peptides)” value (HUVECs) does the source give for DFKLFAVY (DFKLFAVY-NH2) here?
**A.** ++

**Q.** Which “Activity (tube formation, truncated C16Y peptides)” value (HUVECs) does the source give for DFKLFAVYI [truncated version of C16Y] here?
**A.** ++

**Q.** Which “Activity (tube formation, truncated C16Y peptides)” value (HUVECs) does the source give for DFKLFAVYIK [truncated version of C16Y] here?
**A.** ++

**Q.** For DFKLFAVYIKY [truncated version of C16Y], which “Activity (tube formation, truncated C16Y peptides)” value (HUVECs) is on record?
**A.** ++

**Q.** Which “Toxicity” value [5] does the source give for “DFKLFAVYIKYR-NH2 [Peptide C16Y, DFKLFAVYIKYR]” here?
**A.** not toxic

**Q.** For DRKL, which “Activity (tube formation, truncated C16Y peptides)” value (HUVECs) is on record?
**A.** −

**Q.** For FAVYIKYR [truncated version of C16Y], which “Activity (tube formation, truncated C16Y peptides)” value (HUVECs) is on record?
**A.** −

**Q.** For FKLFAVYIKYR [truncated version of C16Y], which “Activity (tube formation, truncated C16Y peptides)” value (HUVECs) is on record?
**A.** −

**Q.** For KLFAVYIKYR [truncated version of C16Y], which “Activity (tube formation, truncated C16Y peptides)” value (HUVECs) is on record?
**A.** −

**Q.** With LFAVYIKYR [truncated version of C16Y] as the substance, how does the “Activity (tube formation, truncated C16Y peptides)” value (HUVECs) read?
**A.** −

**Q.** Which “Effect on endothelial tube formation” value (HUVECs) does the source give for “SEQ ID NO: 6: peptide having the fibronectin sequence (residues 1023-1033) of c-elegans (DYKYFAVYYR) [reference compound]” here?
**A.** no ability to block endothelial tube formation

**Q.** With VYIKYR as the substance, how does the “Activity (tube formation, truncated C16Y peptides)” value (HUVECs) read?
**A.** −

**Q.** Which “Activity lower than that of C16Y” value [6] does the source give for YIGSR here?
**A.** ~10 fold

**Q.** For YIKYR, which “Activity (tube formation, truncated C16Y peptides)” value (HUVECs) is on record?
**A.** −
